Reference: patent US4334066A (priority 1981, dated 1982)
≈ marks a conversion by molar mass, not a printed value.

Assays:
Format in all cases: cell-based
[1] = system: Stem rot of eggplant (Sclerotinia Sclerotiorum); conditions: 48 h, test microorganism C, PDA medium, complete inhibition of mycelial growth, read 2 days later, read-out: Minimum Inhibitory Concentration
Description: (§1) The test microorganisms employed are described below.
C . . . Stem rot of eggplant
(Sclerotinia Sclerotiorum)

[2] = system: Gammy stem blight of melon (Mycosphaerella melonis); conditions: 48 h, test microorganism D, PDA medium, complete inhibition of mycelial growth, read 2 days later, read-out: Minimum Inhibitory Concentration
Description: as §1
D . . . Gammy stem blight of melon

[3] = system: Rice blast disease (Pyricularia oxyzae); assay: microbe, parasite or virus in culture; conditions: 48 h, read-out: Minimum Inhibitory Concentration
[4] = system: Early blight of tomato (Alternaria solaui); conditions: 48 h, test microorganism E, PDA medium, complete inhibition of mycelial growth, read 2 days later, read-out: Minimum Inhibitory Concentration
Description: as §1
E . . . Early blight of tomato

[5] = system: Bacterial blight of rice (Xanthomonas oryzae); assay: microbe, parasite or virus in culture; conditions: 48 h, read-out: Minimum Inhibitory Concentration

Compound	MIC [1] [µg/mL]	MIC [2] [µg/mL]	MIC [3] [µg/mL]	MIC [4] [µg/mL]	MIC [5] [µg/mL]
CCC1OC(OC)C=C(CN2CCNCC2)C1=O (stereo not drawn) [Compound 1, 6-ethyl-2-methoxy-4-piperazinomethyl-5-oxo-5,6-dihydro-2H-pyran]	100 (≈ 393 µM)	100 (≈ 393 µM)	100 (≈ 393 µM)	200 (≈ 786 µM)	12.5 (≈ 49.1 µM)
CCOC1C=C(CN2CCOCC2)C(=O)C(C(C)C)O1 (stereo not drawn) [Compound 2, 6-isopropyl-2-ethoxy-4-morpholinomethyl-5-oxo-5,6-dihydro-2H-pyran]	100 (≈ 353 µM)	100 (≈ 353 µM)	100 (≈ 353 µM)	200 (≈ 706 µM)	
